A word on the IC50: it is the concentration at which inhibition is half-maximal.

Here are results for 23 compounds from patent publication US20230063457A1, “DNA-PK INHIBITING COMPOUNDS” (Provincial Health Services Authority, priority 2019, published 2023).

For the first assay, the target named is DNA-PK kinase (Homo sapiens, UniProt P78527). The assay is described as follows: Inhibition of DNA-PK kinase activity (ADP-Glo). In kind it is biochemical. Particulars: averaged values over all measurements on all batches; 150 μM ATP, 1 hour at 25° C. The procedure: Inhibition of DNA-PK Kinase Activity Assay buffer was 50 mM Hepes pH 7.5 containing 0.1 mg/ml BSA (albumin from bovine serum), 50 μM DTT (dithiothreitol), 20 mM MgCl2 and 10 μg/ml calf thymus DNA (activation buffer). Kinase reaction was carried out in OptiPlate 384 plates (PerkinElmer 6007299). All compounds tested were dissolved in dimethyl sulfoxide (DMSO) and further dilutions were made in assay buffer. Final DMSO concentration was 1% (v/v). Pre-incubation consisted of compound (1% DMSO in control and blank wells) and 24 ng/well DNA-PK kinase to allow the compounds to bind the enzyme (with buffer in the blank wells) for 15 minutes; after this time 150 μM Adenosine-5′-triphosphate (ATP) and 0.2 μg/μl DNA-PK substrate were added to commence the kinase reaction. Incubations were carried out for 1 hour at 25° C. Kinase activity was determined by using ADP-Glo™ reagent from Promega according to the manufacturer's instructions. The light generated was measured using a luminometer (EnVision, PerkinElmer). Signal obtained in the wells containing blank samples was subtracted from all other wells and IC50 values were determined by fitting a sigmoidal curve to % inhibition of control versus Log10 compound concentration.
`N#Cc1cnc(NCC2CCN(c3nc(N4CCOCC4)cc4ncccc34)CC2)nc1` [Example 107] came in with an IC50 of 66 nM.

In turn, `c1cnc(NCCC2CN(c3nc(N4CCOCC4)cc4ncccc34)C2)nc1` [Example 21] gave an IC50 of 164 nM.

Compound `c1cnc(NCCCCOc2nc(N3CCOCC3)cc3ncccc23)nc1` [Example 8] returned an IC50 of 279 nM.

The compound `c1cnc2cc(N3CCOCC3)nc(O[C@H]3C[C@@H](c4ncc[nH]4)C3)c2c1` [Example 87] returned an IC50 of 51 nM.

The compound `c1cnc(NC2CC3(CCN(c4nc(N5CCOCC5)cc5ncccc45)C3)C2)nc1` (mixture of isomers) [Example 1] showed an IC50 of 82 nM.

With `c1cnc2cc(N3CCOCC3)nc(NCC3CCN(c4nnc[nH]4)CC3)c2c1` [Parent compound 152], half-maximal inhibition (IC50) required 19 nM.

Regarding `c1cnc2cc(N3CCOCC3)nc(O[C@H]3CC[C@@H](n4nccn4)CC3)c2c1` [Example 81], half-maximal inhibition (IC50) was put at 10 nM.

As for `c1cnc2cc(N3CCOCC3)nc(O[C@H]3CC[C@@H](c4nnn[nH]4)CC3)c2c1` [Example 74], the IC50 is 3 nM.

The compound `Oc1cnc2cc(N3CCOCC3)nc(O[C@H]3CC[C@@H](n4cc(F)cn4)CC3)c2c1` [Example 163] showed an IC50 of 2 nM.

In turn, `c1cnnc(NCC2CCN(c3nc(N4CCOCC4)cc4ncccc34)CC2)c1` [Parent compound 131] gave an IC50 of 63 nM.

The compound `CN1CC(CNc2nc(N3CCOCC3)cc3ncccc23)COC1=O` (stereo not shown) [Parent compound 150] yielded an IC50 of 66 nM.

For the compound `F[C@H]1CN(c2ncn[nH]2)CC[C@@H]1Oc1nc(N2CCOCC2)cc2ncccc12` [Example 156], half-maximal inhibition (IC50) required 93 nM.

For `CC(=O)N1CCN(c2nc(N3CCOCC3)cc3ncccc23)CC1` [Example 84], the IC50 was 188 nM.

For `CCCCc1nc2cc(N3CCOCC3)nc(O[C@H]3CC[C@@H](n4cc(F)cn4)CC3)c2cc1O` [Parent compound 175], the IC50 was 18 nM.

With `c1cnc(NCC2CCN(c3nc(N4CCOCC4)cc4ncccc34)CC2)nc1` [Example 2], 39 nM corresponded to half-maximal inhibition (IC50).

In the case of `c1cncc(NCC2CCN(c3nc(N4CCOCC4)cc4ncccc34)CC2)c1` [Example 133], the IC50 stood at 155 nM.

In turn, `CNc1cnc2cc(N3CCOCC3)nc(O[C@H]3CC[C@@H](n4ccnc4)CC3)c2c1` [Parent compound 171] returned an IC50 of 10 nM.

As to `CNC(=O)N1CC(COc2nc(N3CCOCC3)cc3ncccc23)C1` [Example 148], the IC50 amounted to 171 nM.

The compound `c1cnc(N[C@H]2[C@@H]3CN(c4nc(N5CCOCC5)cc5ncccc45)C[C@@H]32)nc1` [Example 12] displayed an IC50 of 70 nM.

Regarding `c1cnc2cc(N3CCOCC3)nc(N[C@H]3CC[C@@H](c4nnc[nH]4)CC3)c2c1` [Example 58], half-maximal inhibition (IC50) required 27 nM.

For `c1ccc(NCC2CCN(c3nc(N4CCOCC4)cc4ncccc34)CC2)nc1` [Example 122], the IC50 turned out to be 185 nM.

In turn, `Cn1ncnc1[C@H]1CC[C@@H](Oc2nc(N3CCOCC3)cc3ncccc23)CC1` [Example 56] yielded an IC50 of 12 nM.

Compound `C[C@H]1COCCN1c1cc2ncccc2c(O[C@H]2CC[C@@H](c3nc[nH]n3)CC2)n1` [Example 67] yielded an IC50 of 32 nM.

Another assay addresses T1, Phospho-DNA-PK in FaDu Cells (Homo sapiens, UniProt P78527).
T1 construct: host or cells: FaDu
The assay is described as follows: Effect of compounds on phospho-DNA-PK in FaDu cells (MesoScale sandwich immunoassay). Type of assay: cell-based. Particulars: 1 hour pre-incubation, 1 μg/ml Neocarzinostatin 2 hours, averaged values, read-out: MSD FaDu IC50. The procedure:
Effect of Compounds on Phospho-DNA-PK in FaDu Cells
All compounds tested were dissolved in DMSO and further dilutions were made in culture medium. Final DMSO concentration was 0.3% (v/v). The human FaDu cells (ATCC) were cultured in MEM medium supplemented with Glutamax and 10% fetal calf serum (PAA). Cells were routinely maintained at densities of 0.2×10^6 cells per ml at 37° C. in a humidified 5% CO2, 95% air atmosphere. Cells were passaged twice a week, splitting back to obtain the low density. Cells were seeded in 96 well plates (Corning 3904) at 1×10^6 cells per ml media in a volume of 50 μl per well. Seeded cells were incubated at 37° C. in a humidified 5% CO2, 95% air atmosphere for 24 hours. Compounds were added (25 μl) to the cells and pre-incubated for 1 hour. 1 μg/ml DNA-damaging agent Neocarzinostatin (NCS) was added (25 μl) to a final volume of 100 μl and incubated for 2 hours at 37° C. in a humidified 5% CO2, 95% air atmosphere. After this period of time plates were removed from the incubator and the 100 μl dilutions were removed from the wells gently, prior to the addition of 75 μl cold RIPA lysis buffer with protease and phosphatase inhibitors to achieve the cells lysis, followed by shaking on a plate shaker at 4° C. for 30 minutes. At the end of this incubation, lysate was assessed for phospho-DNA-PK levels by sandwich immune-assay carried out in anti-mouse antibody coated MesoScale plates. […] Signal obtained in the wells containing blank samples was subtracted from all other wells and IC50 values were determined by fitting a sigmoidal curve to % inhibition of control versus Logo compound concentration.
As for `N#Cc1cnc(NCC2CCN(c3nc(N4CCOCC4)cc4ncccc34)CC2)nc1` [Example 107], the IC50 was determined as 2370 nM.

For `c1cnc(NCCC2CN(c3nc(N4CCOCC4)cc4ncccc34)C2)nc1` [Example 21], the IC50 was determined as 7960 nM.

Take `c1cnc(NCCCCOc2nc(N3CCOCC3)cc3ncccc23)nc1` [Example 8]: the IC50 was 6660 nM.

Turning to `c1cnc2cc(N3CCOCC3)nc(O[C@H]3C[C@@H](c4ncc[nH]4)C3)c2c1` [Example 87], the IC50 was 1160 nM.

With `c1cnc(NC2CC3(CCN(c4nc(N5CCOCC5)cc5ncccc45)C3)C2)nc1` (mixture of isomers) [Example 1], the IC50 was determined as 832 nM.

As to `c1cnc2cc(N3CCOCC3)nc(NCC3CCN(c4nnc[nH]4)CC3)c2c1` [Parent compound 152], the IC50 was found to be 5790 nM.

Take `c1cnc2cc(N3CCOCC3)nc(O[C@H]3CC[C@@H](n4nccn4)CC3)c2c1` [Example 81]: the IC50 was determined as 507 nM.

Consider `c1cnc2cc(N3CCOCC3)nc(O[C@H]3CC[C@@H](c4nnn[nH]4)CC3)c2c1` [Example 74], for which the IC50 turned out to be 759 nM.

With `Oc1cnc2cc(N3CCOCC3)nc(O[C@H]3CC[C@@H](n4cc(F)cn4)CC3)c2c1` [Example 163], the IC50 is 134 nM.

Turning to `c1cnnc(NCC2CCN(c3nc(N4CCOCC4)cc4ncccc34)CC2)c1` [Parent compound 131], the IC50 was 7310 nM.

In the case of `CN1CC(CNc2nc(N3CCOCC3)cc3ncccc23)COC1=O` (stereo not shown) [Parent compound 150], the IC50 was determined as 1920 nM.

On to `F[C@H]1CN(c2ncn[nH]2)CC[C@@H]1Oc1nc(N2CCOCC2)cc2ncccc12` [Example 156], for which the IC50 came out at 875 nM.

Turning to `CC(=O)N1CCN(c2nc(N3CCOCC3)cc3ncccc23)CC1` [Example 84], the IC50 was found to be 3840 nM.

Take `CCCCc1nc2cc(N3CCOCC3)nc(O[C@H]3CC[C@@H](n4cc(F)cn4)CC3)c2cc1O` [Parent compound 175]: the IC50 was 464 nM.

For the compound `c1cnc(NCC2CCN(c3nc(N4CCOCC4)cc4ncccc34)CC2)nc1` [Example 2], the IC50 is 743 nM.

As to `c1cncc(NCC2CCN(c3nc(N4CCOCC4)cc4ncccc34)CC2)c1` [Example 133], the IC50 came out at 11400 nM.

On to `CNc1cnc2cc(N3CCOCC3)nc(O[C@H]3CC[C@@H](n4ccnc4)CC3)c2c1` [Parent compound 171], for which the IC50 was determined as 270 nM.

As for `CNC(=O)N1CC(COc2nc(N3CCOCC3)cc3ncccc23)C1` [Example 148], the IC50 came out at 4920 nM.

For `c1cnc(N[C@H]2[C@@H]3CN(c4nc(N5CCOCC5)cc5ncccc45)C[C@@H]32)nc1` [Example 12], the half-maximal inhibitory concentration (IC50) was 2550 nM.

Turning to `c1cnc2cc(N3CCOCC3)nc(N[C@H]3CC[C@@H](c4nnc[nH]4)CC3)c2c1` [Example 58], the IC50 was 1590 nM.

On to `c1ccc(NCC2CCN(c3nc(N4CCOCC4)cc4ncccc34)CC2)nc1` [Example 122], for which the IC50 amounted to 4360 nM.

Turning to `Cn1ncnc1[C@H]1CC[C@@H](Oc2nc(N3CCOCC3)cc3ncccc23)CC1` [Example 56], the IC50 was found to be 238 nM.

For the compound `C[C@H]1COCCN1c1cc2ncccc2c(O[C@H]2CC[C@@H](c3nc[nH]n3)CC2)n1` [Example 67], the IC50 was 891 nM.
